Experimental data taken from patent publication US20090124675A1, “INHIBITORS OF ANTI-APOPTOTIC PROTEINS” (Burnham Institute for Medical Research, priority 2007, published 2009).
Entries after “also recorded” stand apart in the source; their conditions may differ.

How the values were obtained:
BCL-XL [1] = target: T1, BCL-XL (Homo sapiens, UniProt Q07817); test: NMR spectroscopy binding test (1D 1H / 2D [15N,1H]-HSQC); settings: NMR data, FIGS. 3-5; negative control
T1 construct: Recombinant full length BCL-XL was produced; poly-His (N); made in house; host or cells: E. coli BL21
Protocol: (§1) Predicted binding mode of some compounds of the present invention to a BCL-2 protein is illustrated by FIG. 1 (binding of compound 11 shown below), FIG. 2A (binding of compound 1 shown above), and FIG. 2B (binding of compound 2 shown above). […] FIG. 4 and FIG. 5 show such NMR data for compounds 6 and 7 shown above. The inhibition was also evaluated by measuring dissociation constant (Kd) values for some compounds of the invention.
For all NMR experiments, BCL-xL was exchanged into 50 mM phosphate buffer at pH 7.5 and measurements were performed at 30° C. 2D [^15N,^1H]-HSQC spectra for BCL-xL were measured with 0.5 mM samples of ^15N-labeled protein. All experiments were performed with a 600 MHz Bruker Avance spectrometer, both equipped with either a TXI probe or a TCI cryoprobe. In all experiments, dephasing of residual water signals was obtained with a WATERGATE sequence. In order to test the ability of test compounds to bind to Bcl-xL, a 25 μM sample of the protein was prepared and 1D ^1H NMR spectra were collected in absence and presence of test compounds. By observing the aliphatic region of the spectra, binding can be readily detected in these simple experiments due to chemical shift changes in active site methyl groups of Ile, Leu, Thr, Val or Ala (region between 0.8 and 0.3 ppm).

BCL-XL [2] = target: T1, BCL-XL; test: Inhibition evaluated by measuring dissociation constant (Kd); assay type: binding
Protocol: as §1

B6BCL-2 transgenic mouse = test: In vivo test in the B6BCL-2 transgenic mouse; settings: for In vivo activity compared with known compounds / Order of potency in terms of in vivo efficacy: B6BCL-2 transgenic mouse; for Order of potency in terms of in vivo efficacy / Order of severity of toxic effect: rank order; for Order of severity of toxic effect: diminishing severity
Protocol: Some compounds of the invention were also tested in vivo in the B6BCL-2 transgenic mouse. […] Gossypol is described, e.g., in U.S. Pat. No. 7,186,708. Apogossypol is described, e.g., in Meyers A. I.; Willemsen J. J., Tetrahedron Letters, vol. 37, No. 6, February, […], pp. 791-792.

Triplet B6Bcl2 mice = test: Delivery of Epalrestat in vivo, spleen weight in Triplet B6Bcl2 mice
Protocol: Epalrestat (compound 11) was given to Triplet B6Bcl2 mice at a daily dose of 0.12 mmol/kg for 3 days (i.e., QDX3) through oral gavage. […] Both Epalrestat and the negative control were dissolved in PBS.
After 3 days, the spleens of the animals were removed.

T1 sequence (Q07817 whole entry, species assumed): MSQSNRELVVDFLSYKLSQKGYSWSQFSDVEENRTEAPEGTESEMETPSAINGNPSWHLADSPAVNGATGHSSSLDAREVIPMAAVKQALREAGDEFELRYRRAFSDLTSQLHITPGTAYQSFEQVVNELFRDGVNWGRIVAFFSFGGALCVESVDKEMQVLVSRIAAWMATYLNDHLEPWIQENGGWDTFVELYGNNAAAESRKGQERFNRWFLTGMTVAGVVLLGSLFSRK

Kd (BCL-XL [2]) | Compound | In vivo activity compared with known compounds (B6BCL-2 transgenic mouse) | Order of potency in terms of in vivo efficacy (B6BCL-2 transgenic mouse) | Order of severity of toxic effect (B6BCL-2 transgenic mouse) | other results
 | COc1c(C=C2SC(=S)N(C(C(=O)O)C(C)C)C2=O)cc2ccccc2c1OC (stereo not shown) [Compound 7, 2-[5-((1,2-dimethoxynaphthalen-3-yl)methylene)-4-oxo-2-thioxothiazolidin-3-yl]-3-methylbutanoic acid] |  |  |  | Binding to BCL-XL by NMR (BCL-XL [1]): binding had occurred
5.7 µM | CC(=C\c1ccccc1)/C=C1/SC(=S)N(C(C(=O)O)C(C)C)C1=O (stereo not shown) [Compound 2, 3-methyl-2-[5-(2-methyl-3-phenylallylidene)-4-oxo-2-thioxothiazolidin-3-yl]butanoic acid] |  |  |  | 
34.4 µM | CC(C(=O)O)N1C(=O)C(=CC=Cc2ccccc2)SC1=S (stereo not shown) [Compound 10, 2-[4-oxo-5-(3-phenylallylidene)-2-thioxothiazolidin-3-yl]propanoic acid] |  |  |  | 
 | COc1cc2cc(C=C3SC(=S)N(C(C(=O)O)C(C)C)C3=O)c(C)cc2c(C(C)C)c1OC (stereo not shown) [Compound 3, 2-[5-(1-isopropyl-2,3-dimethoxy-7-methylnaphthalen-6-yl-methylene)-4-oxo-2-thioxothiazolidin-3-yl]-3-methylbutanoic acid] | equal to, or better than, known compounds gossypol and apogossypol | compound 11>compound 5>compound 3=apogossypol=gossypol | gossypol>>>apogossypol>compound 5=compound 3=compound 11 | 
 | Cc1cc2c(C(C)C)c(O)c(O)c(C=O)c2c(O)c1-c1c(C)cc2c(C(C)C)c(O)c(O)c(C=O)c2c1O [gossypol] |  |  | gossypol>>>apogossypol>compound 5=compound 3=compound 11 | 
 | apogossypolone | not effective at all |  |  | 
 | COc1cc2c(cc1OC)C(Br)=C(C=C1SC(=S)N(C(C(=O)O)C(C)C)C1=O)CC2 (stereo not shown) [Compound 5, 2-[5-((4-bromo-1,2-dihydro-6,7-dimethoxynaphthalen-3-yl)methylene)-4-oxo-2-thioxothiazolidin-3-yl]-3-methylbutanoic acid] | equal to, or better than, known compounds gossypol and apogossypol | compound 11>compound 5>compound 3=apogossypol=gossypol | gossypol>>>apogossypol>compound 5=compound 3=compound 11 | 
10.6 µM | CC(C)C(C(=O)O)N1C(=O)C(=CC=Cc2ccccc2)SC1=S (stereo not shown) [Compound 9, 3-methyl-2-[4-oxo-5-(3-phenylallylidene)-2-thioxothiazolidin-3-yl]butanoic acid] |  |  |  | 
 | Cc1cc2c(C(C)C)c(O)c(O)cc2c(O)c1-c1c(C)cc2c(C(C)C)c(O)c(O)cc2c1O [apogossypol] |  | compound 11>compound 5>compound 3=apogossypol=gossypol | gossypol>>>apogossypol>compound 5=compound 3=compound 11 | 
 | CC(C)C(C(=O)O)N1C(=O)C(=CC2=C(Br)c3cc(O)c(O)cc3CC2)SC1=S (stereo not shown) [Compound 6, 2-[5-((4-bromo-1,2-dihydro-6,7-dihydroxynaphthalen-3-yl)methylene)-4-oxo-2-thioxothiazolidin-3-yl]-3-methylbutanoic acid] |  |  |  | Binding to BCL-XL by NMR (BCL-XL [1]): binding had occurred
1 µM | CC(=C\c1ccccc1)/C=C1/SC(=S)N(C(C(=O)O)c2ccccc2)C1=O (stereo not shown) [Compound 1, 2-[5-(2-methyl-3-phenylallylidene)-4-oxo-2-thioxothiazolidin-3-yl]-2-phenylacetic acid] |  |  |  | 

Compound | Kd (BCL-XL [2]) | In vivo activity compared with known compounds (B6BCL-2 transgenic mouse) | Order of potency in terms of in vivo efficacy (B6BCL-2 transgenic mouse) | Order of severity of toxic effect (B6BCL-2 transgenic mouse) | other results
CC(=Cc1ccccc1)C=C1SC(=S)N(CC(=O)O)C1=O [Compound 11, 2-[5-(2-methyl-3-phenylallylidene)-4-oxo-2-thioxothiazolidin-3-yl]acetic acid] | 11.8 µM | equal to, or better than, known compounds gossypol and apogossypol | compound 11>compound 5>compound 3=apogossypol=gossypol | gossypol>>>apogossypol>compound 5=compound 3=compound 11 | Shrinkage of spleen (Triplet B6Bcl2 mice; dosed orally or intraperitoneally): induced shrinkage of spleen whether dosed orally or intraperitoneally; Weight loss or signs of toxicity via physical exam (Triplet B6Bcl2 mice; intraperitoneal and oral routes, listed as Epalrestat): no weight loss or signs of toxicity via physical exam; also recorded: qualitatively safer than ApoG; Spleen Weight (Triplet B6Bcl2 mice; oral gavage, 0.12 mmol/kg daily for 3 days (QDX3), in PBS, spleens removed after 3 days): 193.9 mg; % spleen shrinkage, intraperitoneal versus oral dosing (Triplet B6Bcl2 mice; route comparison): Intraperitoneal injection induced more % shrinkage than oral dosing; Binding to BCL-XL by NMR (BCL-XL [1]): binding had occurred
